Test results: ChEMBL document CHEMBL6134844, “Development of Next-Generation Antimalarial Acridones with Radical Cure Potential” (J Med Chem, 2025)

Legend:
Plasmodium cynomolgi [1] = experiment: Antiplasmodial activity against schizont Plasmodium cynomolgi B strain infected in Macaca mulatta hepatocytes incubated with sporozoite containing salivary gland homogenate obtained from dissected Anopheles dirus mosquitoes (infected with Plasmodium cynomolgi B strain) treatment started on day 4 post infection and continued daily for 4 days into fresh changed media until day 8 assessed as Liver stage (LS) activity by measuring prophylactic mode by immunofluorescent staining analysis; format: functional, organism-based; conditions: Hepatocyte
[2] = human, microsomes, 1 h
Plasmodium cynomolgi [3] = experiment: Antiplasmodial activity against hypnozoite Plasmodium cynomolgi B strain infected in Macaca mulatta hepatocytes incubated with sporozoite containing salivary gland homogenate obtained from dissected Anopheles dirus mosquitoes (infected with Plasmodium cynomolgi B strain) treatment started on day 4 post infection and continued daily for 4 days into fresh changed media until day 8 assessed as Liver stage (LS) activity by measuring radical cure mode by immunofluorescent staining analysis; format: functional, organism-based; conditions: Hepatocyte
Hepatocyte = experiment: Cytotoxicity against Macaca mulatta hepatocytes assessed as cell viability measured after 48 hrs by MTT assay; format: toxicity, cell-based; conditions: rhesus monkey, 48 h
Plasmodium cynomolgi [4] = experiment: Antiplasmodial activity against schizont Plasmodium cynomolgi B strain infected in Macaca mulatta hepatocytes incubated with sporozoite containing salivary gland homogenate obtained from dissected Anopheles dirus mosquitoes (infected with Plasmodium cynomolgi B strain) treatment started on day 4 post infection and continued daily for 4 days into fresh changed media until day 8 assessed as Liver stage (LS) activity by measuring radical cure mode by immunofluorescent staining analysis; format: functional, organism-based; conditions: Hepatocyte
HepG2 = experiment: Cytotoxicity against human HepG2 cells assessed as cell viability measured after 48 hrs by MTT assay; format: functional, cell-based; conditions: HepG2, 48 h
[5] = Selectivity index, ratio of CC50 for Macaca mulatta hepatocytes to IC50 for antiplasmodial activity against schizont Plasmodium cynomolgi B strain infected in Macaca mulatta hepatocytes incubated with sporozoite containing salivary gland homogenate obtained from dissected Anopheles dirus mosquitoes (infected with Plasmodium cynomolgi B strain) treatment started on day 4 post infection and continued daily for 4 days into fresh changed media until day 8 assessed as Liver stage (LS) activity by measuring prophylactic mode by immunofluorescent staining analysis; format: toxicity, cell-based; conditions: rhesus monkey, read-out: Selectivity Index
Plasmodium falciparum [6] = experiment: Antiplasmodial activity against asexual blood-stage (ABS) ATV-resistant clinical isolate Plasmodium falciparum Tm90-C2B infected in human erythrocytes assessed as reduction in fluorescence measured after 72 hrs by Malaria SYBR Green I-based Fluorescence (MSF) assay; format: functional, organism-based; conditions: Erythrocyte
[7] = mouse, microsomes, 1 h
Plasmodium falciparum [8] = experiment: Antiplasmodial activity against asexual blood-stage (ABS) MDR Plasmodium falciparum Dd2 infected in human erythrocytes assessed as reduction in fluorescence measured after 72 hrs by Malaria SYBR Green I-based Fluorescence (MSF) assay; format: functional, organism-based; conditions: Dd2, Erythrocyte
[9] = Selectivity index, ratio of CC50 for Macaca mulatta hepatocytes to IC50 for antiplasmodial activity against hypnozoite Plasmodium cynomolgi B strain infected in Macaca mulatta hepatocytes incubated with sporozoite containing salivary gland homogenate obtained from dissected Anopheles dirus mosquitoes (infected with Plasmodium cynomolgi B strain) treatment started on day 4 post infection and continued daily for 4 days into fresh changed media until day 8 assessed as Liver stage (LS) activity by measuring prophylactic mode by immunofluorescent staining analysis; format: toxicity, cell-based; conditions: rhesus monkey, read-out: Selectivity Index
Plasmodium cynomolgi [10] = experiment: Antiplasmodial activity against hypnozoite Plasmodium cynomolgi B strain infected in Macaca mulatta hepatocytes incubated with sporozoite containing salivary gland homogenate obtained from dissected Anopheles dirus mosquitoes (infected with Plasmodium cynomolgi B strain) treatment started on day 4 post infection and continued daily for 4 days into fresh changed media until day 8 assessed as Liver stage (LS) activity by measuring prophylactic mode by immunofluorescent staining analysis; format: functional, organism-based; conditions: Hepatocyte
Plasmodium falciparum [11] = experiment: Antiplasmodial activity against asexual blood-stage (ABS) CQ-sensitive Plasmodium falciparum D6 infected in human erythrocytes assessed as reduction in fluorescence measured after 72 hrs by Malaria SYBR Green I-based Fluorescence (MSF) assay; format: functional, organism-based; conditions: D6, Erythrocyte
[12] = Selectivity index, ratio of CC50 for Macaca mulatta hepatocytes to IC50 for antiplasmodial activity against schizont Plasmodium cynomolgi B strain infected in Macaca mulatta hepatocytes incubated with sporozoite containing salivary gland homogenate obtained from dissected Anopheles dirus mosquitoes (infected with Plasmodium cynomolgi B strain) treatment started on day 4 post infection and continued daily for 4 days into fresh changed media until day 8 assessed as Liver stage (LS) activity by measuring radical cure mode by immunofluorescent staining analysis; format: toxicity, cell-based; conditions: rhesus monkey, read-out: Selectivity Index
[13] = Selectivity index, ratio of CC50 for Macaca mulatta hepatocytes to IC50 for antiplasmodial activity against hypnozoite Plasmodium cynomolgi B strain infected in Macaca mulatta hepatocytes incubated with sporozoite containing salivary gland homogenate obtained from dissected Anopheles dirus mosquitoes (infected with Plasmodium cynomolgi B strain) treatment started on day 4 post infection and continued daily for 4 days into fresh changed media until day 8 assessed as Liver stage (LS) activity by measuring radical cure mode by immunofluorescent staining analysis; format: toxicity, cell-based; conditions: rhesus monkey, read-out: Selectivity Index

SMILES | IC50 (Plasmodium cynomolgi [1]) [nM] | t1/2 [2] [h] | IC50 (Plasmodium cynomolgi [3]) [nM] | CC50 (Hepatocyte) [nM] | IC50 (Plasmodium cynomolgi [4]) [nM] | IC50 (HepG2) [nM] | selectivity ratio at 96 h [5] | IC50 (Plasmodium falciparum [6]) [nM] | CLH [7] [µL/min/mg] | IC50 (Plasmodium falciparum [8]) [nM] | selectivity ratio at 96 h [9] | IC50 (Plasmodium cynomolgi [10]) [nM] | IC50 (Plasmodium falciparum [11]) [nM] | selectivity ratio at 96 h [12] | selectivity ratio at 96 h [13]
O=c1c2ccc(Oc3ccc(OC(F)(F)F)cc3)cc2[nH]c2cc(Cl)c(F)cc12 | 270 | > 1 | > 20000 | > 20000 | > 20000 | > 200000 | > 74.1 | 1520 | 177 | 11.1 | > 15.5 | 1290 | 14.4 | – | –
O=c1c2ccc(OC3CCNCC3)cc2[nH]c2cc(F)cc(Cl)c12 | 4060 | > 1 | > 20000 | > 20000 | 13800 | 48900 | > 4.92 | > 2500 | 72.1 | 31.4 | > 3.36 | 5950 | 27.2 | > 1.45 | –
CO[C@@H]1[C@@H](OC)[C@H](C)[C@@](O)(CC(=O)O)O[C@H]1[C@H](C)[C@H]1O[C@@]2(CC[C@@](C)([C@H]3CC[C@@](C)([C@@H]4O[C@@H]([C@H]5O[C@](C)(O)[C@H](C)C[C@@H]5C)C[C@@H]4O[C@@H]4C[C@H](OC)[C@@H](OC)[C@H](C)O4)O3)O2)C[C@H](O)[C@H]1C [MADURAMICIN ACID] | 30 | – | 30 | 2360 | 40 | – | 78.7 | – | – | – | 236 | 10 | – | 59 | 78.7
O=c1c2ccc(Oc3ccccc3OC(F)(F)F)cc2[nH]c2cc(Cl)cc(F)c12 | 80 | – | 4560 | 9210 | 4210 | > 200000 | 115 | 28.8 | 72.3 | 0.005 | 6.72 | 1370 | 0.005 | 2.19 | 2.02
O=c1c2ccccc2[nH]c2cc(Oc3ccc(OC(F)(F)F)cc3)ccc12 | 540 | – | 3020 | 3160 | 1840 | > 200000 | 5.85 | 3.3 | 11.5 | 0.03 | 2.01 | 1570 | 0.019 | 1.72 | 1.05
O=c1c2c(F)cc(Cl)cc2[nH]c2cccc(Oc3ccc(OC(F)(F)F)cc3)c12 | 7370 | > 1 | > 20000 | > 20000 | 16600 | 189000 | > 2.71 | > 2500 | 45.4 | 188 | – | > 20000 | 87.8 | > 1.2 | –
CC(C)(C)OC(=O)N1CCC(Oc2ccc3c(=O)c4c(Cl)cc(F)cc4[nH]c3c2)CC1 | 150 | > 1 | 4440 | 4730 | 3940 | 90200 | 31.5 | > 2500 | < 3.125 | 45.7 | 3.45 | 1370 | 36.7 | 1.2 | 1.06
O=c1c2ccc(Oc3ccc(OC(F)(F)F)cc3)cc2[nH]c2ccc(Cl)c(F)c12 | 50 | > 1 | 4120 | 4580 | 2110 | > 200000 | 91.6 | 277 | < 3.125 | 0.2 | 11.4 | 400 | 0.191 | 2.17 | 1.11
O=c1c2cccc(Oc3ccc(OC(F)(F)F)cc3)c2[nH]c2cc(Cl)cc(F)c12 | 3330 | > 1 | > 20000 | > 20000 | > 20000 | 92900 | > 6.01 | > 2500 | 25.5 | 188 | > 1.47 | 13600 | 383 | – | –
O=c1c2ccc(OC3CCNCC3)cc2[nH]c2cc(Cl)cc(F)c12 | – | – | – | – | – | 38200 | – | > 2500 | – | 121 | – | – | 662 | – | –
O=c1c2ccc(OCc3cccc(C(F)(F)F)c3)cc2[nH]c2ccc(Cl)c(F)c12 | 80 | > 1 | 2190 | > 20000 | 1530 | > 200000 | > 250 | 118 | 15.6 | 0.0004 | > 50 | 400 | 0.0003 | > 13.1 | > 9.13
CN1CCC(Oc2ccc3c(=O)c4c(F)cc(Cl)cc4[nH]c3c2)CC1 | 540 | – | 18200 | > 20000 | 9880 | 55600 | > 37 | > 2500 | 209.5 | 23.1 | > 3.51 | 5700 | 11.2 | > 2.02 | > 1.1
